Drawing on PubChem BioAssay (NCI), this text covers GI50 and TGI for four compounds.

Each structure is given as a SMILES string.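 1) Cells in 96-well plates. 2) Compound, 48 h, 5 concentrations. 3) Linear interpolation between surrounding doses. 4) Unreached endpoint = highest concentration. GI50 is the concentration that inhibits growth by half. TGI: concentration producing complete growth inhibition.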 Some results are limits rather than exact numbers.

Among the test systems are SF-295 CNS; SN12C renal; CCRF-CEM leukemia; U251 CNS; OVCAR-4 ovarian; SK-OV-3 ovarian; MCF7 breast; A549 NSCLC; UO-31 renal.
Common to all, as to test: NCI tumour cell line growth inhibition, 48 h

Turning to `F`, the GI50 in the assay on SF-295 CNS is 2050 µM; with SN12C renal, 3270 µM; with CCRF-CEM leukemia, 4540 µM; in the assay with U251 CNS, 2870 µM; with OVCAR-4 ovarian it was more than 6870 µM; in the assay on SK-OV-3 ovarian, 3680 µM. In addition, the GI50 in the assay with MCF7 breast was 4020 µM; in the assay with A549 NSCLC it was 2730 µM; in the assay on UO-31 renal, 1790 µM. Moreover, the TGI in the assay with SF-295 CNS is 6380 µM; in the assay with SN12C renal, more than 6870 µM; with CCRF-CEM leukemia it was more than 6870 µM; in the assay on U251 CNS, more than 6870 µM; with OVCAR-4 ovarian, more than 6870 µM; with SK-OV-3 ovarian, more than 6870 µM. In addition, the TGI is more than 6870 µM in the assay on MCF7 breast, more than 6870 µM with A549 NSCLC and 6220 µM with UO-31 renal.

Consider `Cc1cc2nc(C(C)C(=O)c3ccc(Cl)cc3)c(=O)[nH]c2cc1C` (centres undefined), for which the TGI in the assay with SF-295 CNS, in the assay with SN12C renal, with CCRF-CEM leukemia, with U251 CNS, in the assay on OVCAR-4 ovarian and with SK-OV-3 ovarian was more than 100 µM in each case. The TGI with MCF7 breast, in the assay on A549 NSCLC and with UO-31 renal was more than 100 µM each time.

In the case of `Nc1c(C(=O)c2cccc(CCCN3CCOCC3)c2)cnn1-c1ccc(F)cc1`, the GI50 with SF-295 CNS, in the assay on SN12C renal, with CCRF-CEM leukemia, in the assay with U251 CNS, with OVCAR-4 ovarian and with SK-OV-3 ovarian was more than 25 µM each time. For the same compound, the GI50 in the assay on MCF7 breast, in the assay with A549 NSCLC and in the assay on UO-31 renal was more than 25 µM in each case. Besides, the TGI in the assay with SF-295 CNS, in the assay on SN12C renal, in the assay on CCRF-CEM leukemia, with U251 CNS, in the assay on OVCAR-4 ovarian and in the assay on SK-OV-3 ovarian was more than 25 µM in each case. In addition, the TGI in the assay on MCF7 breast, with A549 NSCLC and with UO-31 renal was more than 25 µM throughout.

`COc1cccc2c1C(=O)C=CC2=O`: the TGI in the assay on SF-295 CNS amounted to 29.2 µM; in the assay on SN12C renal, 27.4 µM; in the assay on CCRF-CEM leukemia, 1.65 µM; in the assay on U251 CNS it was 13.9 µM; in the assay on OVCAR-4 ovarian, 3.77 µM; with SK-OV-3 ovarian, 36.2 µM. In addition, the TGI came out at 4.82 µM with MCF7 breast, 40.4 µM in the assay on A549 NSCLC and 28.9 µM in the assay on UO-31 renal.
